From patent US11980613B2, “Methods for reversing HIV latency using BAF complex modulating compounds” (priority 2018, dated 2024)

How the values were obtained:
[1] = tested on: Bmi1-luciferase reporter cell line; experiment: Bmi1-luciferase reporter assay (screen for inhibitors of BAF-mediated transcriptional repression); type: cell-based, mouse; settings: for activity in the Bmi1 luciferase reporter assays: grading in words
Experimental: Low passage mESCs from 129 mice (20 million, p10) were electroporated with 40 μg of a linearized construct consisting of 2 kb homology upstream of the Bmi1 locus, firefly luciferase at exon 1 of Bmi1 followed by loxP neo and a 6 kb 3′ homology arm with thymidine kinase outside the homology arms. The cells were plated on 10 gelatin treated plates (60 mm) of irradiated neo resistant MEFs and selected with G418 and ganciclovir for 5 days. 384 colonies were selected, trypsinized and replated in gelatin treated 24-well plates for expansion. The cells were split and DNA was isolated for digestions with EcoRI or BamHI. We confirmed the successful homologous recombination in 7 out 384 colonies using Southern blot analysis at both the 5′ (EcoRI) and 3′ (BamHI) end (see Table S2 of Marian et al., “Small Molecule Targeting of Specific BAF (mSWI/SNF) Complexes for HIV Latency Reversal,” Cell Chem. Biol. (Dec. 20, 2018) 25: 1443-1445). We deleted the neomycin cassette using transfected Cre recombinase and confirmed the excision at all clones using a second round of Southern blot analysis at the 3′ end (BamHI).
(§1) 3. Compound Treatment: 10,000 cells in 30 μL ESC media were plated in white 384 well CellBind plates. The cells were cultured in a 37° C., 5% CO2 incubator for 24 h and 100 nL/well of 0.75 mM of positive control (Pubchem SID: 85814977) or 100 nL/well of 3.75 mM compound library (primary screen) was added via pin transfer into plates. There was no effect on assay readout at DMSO concentrations up to 0.5%. The cells were cultured in a 37° C., 5% CO2 incubator for 24 h for luciferase reporter assay and 18 h for qRT-PCR assay. 4. Luciferase assay: (PubChem AID 602393 primary, PubChem AID 651717 confirmatory.) The assay plates were removed from the incubator and equilibrates for 10 minutes to room temperature. Promega SteadyGlo® solution (10 μL/well) was added to each well of the assay plates. The assay plates were mixed at 1000 rpm for 15 seconds and then incubated for 10 minutes at room temperature. The luciferase levels were read on a Perkin Elmer Envision in Ultra Sensitive Luminescence mode. Signals remained stable up to 2 hours. 5. EqRT-PCR secondary screen (PubChem AID 743180, 743177, 743176) The qRTPCR screen was performed as published^54. In brief, 5,000 ES cells were plated on gelatin-coated 384-well tissue culture plates and cultured in a 37C, 5% CO2 incubator. 24 h later, hit compounds in 100 nL DMSO were treated at eight different doses. 18 h after compound treatment cells were washed two times with 100 μL PBS and all excess PBS was removed by centrifuging the plates upside down at 1000 rpm. The Ambion® Cells-to-Ct kit was used to generate cDNA. In brief, the cells were lysed in the plate in 10 μL lysis buffer containing DNase for 10 minutes and quenched with 1 μL lysis stop buffer. The lysate (2 μL) was added to 5 μL RT reaction buffer (2×), 2.5 μL nuclease-free water and 0.5 μL Reverse transcriptase (20×) and incubated at 37° C. for 60 minutes and 95° C. for 1 minute to generate 10 μL of cDNA. cDNA (1 μL) was used in each 5 μL qPCR reaction with Roche master mix and TaqMan probes (Applied Biosystems) for Bmi1-FAM (Mm00776122_gH), Ring1a-FAM (Mm01278940_m1/4331182), or Fgf4-FAM (Mm00438916_g1/4351372) alongside actin-VIC (4352341E) for a loading control. The qPCR was run accordingly: 95° C. for 10 minutes Then 55 cycles of: 95° C. for 10 seconds followed by 60° C. for 30 seconds. The fold increase in transcription was calculated using the ΔΔCT method^84. 6. Viability Assays (PubChem AID: 743188, 743189, 743190, 1053139, 1053140, 1053141)

[2] = tested on: latent HIV-1 infected T cells; experiment: HIV latency reversal activity of the thiophene hit; type: cell-based
[3] = tested on: latent HIV-1 in CD4+ T cells from c-ART treated HIV-1 infected patients; experiment: HIV latency reversal from patient samples (cell associated HIV Pol mRNA); type: cell-based, human; settings: Patient 1 (one patient); single agents; 24 hours
Experimental: 23. HIV latency reversal from patient samples: All patients were older than 18 years, c-ART treated for at least 3 years, and their viral loads were below 50 copies/ml for more than 12 months with no blips in the past two years. CD4+ T cells from aviremic HIV+ patients were isolated as described previously^55 with minor modifications. Briefly, frozen PBMCs were cultured in RPMI medium over-night to recover. Then next day CD4+ T cells were isolated twice (enriched CD4+ T cells were subjected to a second round of CD4+ T cell enrichment) and left for 6 hrs to recover. Three million cells were treated with DMSO, 10 μM BRD-K80443127, 200 nM Prostratin, 10 μM BRD-K80443127 and 200 nM prostratin, and αCD3/CD28 magnetic beads (at cell:bead ration 1:1) as a positive control in triplicate. After 24 hours cells were lysed in TRIreagent (Sigma), total RNA was isolated with Total RNA Zol-Out (A&A Biotechnology) kit and cDNA was synthetized using random primers and Superscript II Reverse Transcriptase (Life Technologies). Detection of cellular associated pol RNA was performed as described previously (Pol: For […] (SEQ ID NO:15), Rev-[…] (SEQ ID NO: 16))^55. This study was conducted in accordance with the ethical principles of the Declaration of Helsinki. HIV-1 infected patient volunteers were informed and provided signed consent to participate in the study. The study protocol was approved by The Netherlands Medical Ethics Committee (MEC-2012-583). cDNA generated from control and 10 μM BRD-K80443127 treated samples was used to assess expression of BAF target genes biomarker genes-p21 and C-MYC.

[4] = tested on: BAF target genes (Bmi1, Ring1, Fgf4); experiment: qRT-PCR of BAF target genes in ESCs; type: cell-based, mouse; settings: 30 μM of compound, 18 h
Experimental: as §1, with “The lysate (2 μL) was added to 5 μL RT reaction buffer (2×), 2.5 μL nuclease-free water and 0.5 μL Reverse transcriptase (20×) and incubated at 37° C. for 60 minutes and 95° C. for 1 minute to generate 10 μL of cDNA. cDNA (1 μL) was used in each 5 μL qPCR reaction with Roche master mix and TaqMan probes (Applied Biosystems) for Bmi1-FAM (Mm00776122_gH), Ring1a-FAM (Mm01278940_m1/4331182), or Fgf4-FAM (Mm00438916_g1/4351372) alongside actin-VIC (4352341E) for a loading control. The qPCR was run accordingly: 95° C. for 10 minutes Then 55 cycles of: 95° C. for 10 seconds followed by 60° C. for 30 seconds.” left out, “6. Viability Assays (PubChem AID: 743188, 743189, 743190, 1053139, 1053140, 1053141)” left out

wild type ESCs = experiment: Viability in wild type ESCs (CellTiter-Glo); type: cell-based, mouse; settings: up to 30 μM; 72 h
Experimental: FIG. 2: 12-membered macrolactams are inhibitors of BAF-mediated transcription. A. The EC50 was measured for the best screen hit BRD-K98645985 after 24 h compound treatment with the Bmi1-luciferase reporter cell line. Each concentration was dosed in triplicate. B. The fold change of the transcription of three BAF target genes was calculated using qRT-PCR after 18 h BRD-K98645985 treatment (30 μM) or Brg1 knockdown compared to untreated cells. C. Viability measurements in wild type ESCs were performed after 72 h of compound or DMSO treatment using CellTiter-Glo®. D. The structure activity relationship of the eight stereoisomers of BRD-K98645985 based on initial luciferase induction from the primary screen. E. The structure activity relationship of the 3618 macrolactam library members based on initial luciferase induction from the primary screen.
Cell culture: HepG2, A549 and HEK293 cells were propagated to 95% confluence in DMEM containing 10% FBS 1% Pen/Strep, 1% L-Glutamine. Cells were plated at 2000 per well in 40 μL media in white tissue culture treated 384-well plates and incubated at 5% CO2; 95% humidity, 37° C. for 24 hours. […] The plates were read on Perkin-Elmer EnVision with standard luminescence settings for 0.1 sec per well.

HepG2 cells = experiment: Viability assay HepG2; type: cell-based; settings: 72 h
Experimental: (§2) Cell culture: HepG2, A549 and HEK293 cells were propagated to 95% confluence in DMEM containing 10% FBS 1% Pen/Strep, 1% L-Glutamine. Cells were plated at 2000 per well in 40 μL media in white tissue culture treated 384-well plates and incubated at 5% CO2; 95% humidity, 37° C. for 24 hours. Compound (100 nL) was added to wells using a pin tool (CyBi Well) alongside 100 nL cytotoxic compounds, mitoxantrone (final concentration of 10 μM) as a positive control. The cells were incubated for 72 hours at 37° C., 95% humidity 5% CO2. Plates were removed from the incubator, equilibrated for 15 minutes to room temperature; and 20 μL 50% Promega CellTiterGlo (diluted 1:1 with PBS, pH 7.4) was added. The plates were read on Perkin-Elmer EnVision with standard luminescence settings for 0.1 sec per well.

HEK293T cells = experiment: Viability assay HEK293T; type: cell-based; settings: 72 h
Experimental: as §2

A549 cells = experiment: Viability assay A549; type: cell-based; settings: 72 h
Experimental: as §2

[5] = tested on: latent provirus in J-Lat T-cell line; experiment: Cell line models of HIV-1 latency (J-Lat, GFP); type: cell-based; settings: higher concentrations than in primary cells; 48 h
Experimental: [drawing 27] i. BRD-K25923209: To Macrocycle 2141-039b (0.804 g, 1.550 mmol) dissolved in MeOH (Volume: 15.50 ml) was added tin(II) chloride dihydrate (3.50 g, 15.50 mmol). […] Upon completion, the reaction mixture was concentrated and the resulting residue was dissolved in EtOAc and washed with 2 M aq. KOH (2×). The combined aqueous layers were washed with EtOAc (4×). The resulting organic layers were washed with brine, saturated aqueous NaHCO3, water, and brine, dried over MgSO4, filtered, and concentrated. […] BRD-K80443127: A screwtop vial was charged with aniline (BRD-K25923209) (43.3 mg, 0.089 mmol) and CH2Cl2 (Volume: 886 μl, Density: 1.325 g/ml). Isopropyl chloroformate (115 μl, 0.115 mmol) and DIEA (46.4 μl, 0.266 mmol) were added dropwise and reaction stirred under ambient conditions for 1 h. […] BRD-K04244835: A 2.5 mL microwave vial was charged with aniline (BRD-K25923209) (40 mg, 0.082 mmol) and EtOH (Volume: 819 μl, Density: 0.81 g/ml). Squaramide (CRE-III-001) (20.75 mg, 0.098 mmol), DIEA (42.8 μl, 0.246 mmol), and DMAP (2.000 mg, 0.016 mmol) were added in sequence and the vial was sealed. […] 9. […] 10. […] 11.

## CO[C@H]1CN(C)C(=O)c2cc(NC(=O)NC(C)C)ccc2OC[C@H](C)N(Cc2ccccc2)C[C@@H]1C [BRD-K13648511]
[1]
  activity in the Bmi1 luciferase reporter assays: low/no activity

## CCC(CC)Nc1c(Nc2ccc3c(c2)C(=O)N(C)C[C@H](OC)[C@@H](C)CN(Cc2ccc(-c4ccccn4)cc2)[C@@H](C)CO3)c(=O)c1=O [BRD-K04244835]
[1]
  activity in the Bmi1 luciferase reporter assays: low/no activity

## CO[C@H]1CN(C)C(=O)c2cc(NC(=O)NC(C)C)ccc2OC[C@H](C)N(Cc2ccc(-c3cccnc3)cc2)C[C@@H]1C [BRD-K17257309]
[1]
  activity in the Bmi1 luciferase reporter assays: moderate activity

## C=CCNc1nc(NCc2cccc(OC)c2)c2sc(-c3ccccc3)cc2n1 [MLS003122856]
[2]
  HIV latency reversal activity: moderate

## CO[C@H]1CN(C)C(=O)c2cc(N)ccc2OC[C@H](C)N(Cc2ccc(-c3ccccn3)cc2)C[C@@H]1C [BRD-K25923209]
[1]
  activity in the Bmi1 luciferase reporter assays: high activity

## CC(=O)O[C@@]12C[C@@H](C)[C@@]3(O)[C@@H](C=C(CO)C[C@]4(O)C(=O)C(C)=C[C@@H]34)[C@@H]1C2(C)C [prostratin, reference compound]
[3]
  cell associated HIV mRNA (Pol), response: responded

## CO[C@H]1CN(C)C(=O)c2cc(NC(=O)NC(C)C)ccc2OC[C@H](C)N(Cc2ccc(-c3ccccn3)cc2)C[C@@H]1C [BRD-K98645985]
[1]
  activity in the Bmi1 luciferase reporter assays: high activity
[1]; re-evaluation of hit, 24 h compound treatment
  EC50: ~2.37 µM
[4]
  fold decrease in Fgf4: 3.3 fold
  fold increase in Bmi1: 5 fold
  fold increase in Ring1: 2.6 fold
Wild type ESCs
  toxicity to ESCs: no toxicity
HepG2 cells
  toxicity to HepG2 cells: no toxicity
HEK293T cells
  toxicity to HEK293T cells: no toxicity
A549 cells
  toxicity to A549 cells: no toxicity
[5]
  latency reversal (GFP): concentration dependent latency reversal
